According to ChEMBL document CHEMBL4834490, “Novel Bromodomain Inhibitors for Treating Cancer, Fibrosis, and Inflammatory Disorders” (ACS Med Chem Lett, 2021):

Experiments:
[1] = target: T1, Bromodomain-containing protein 4 (Homo sapiens, UniProt O60885); experiment: Binding affinity to DNA-tagged human BRD4 (BD1,2) isoform long expressed in Escherichia coli BL21 incubated for 1 hr by competitive ligand binding BROMOscan assay
[2] = target: T1, Bromodomain-containing protein 4; experiment: Inhibition of binding of N-terminal His-tagged human full length recombinant BRD4 (2 to 1362 residues) expressed in baculovirus-infected Sf9 cells with acetylated histone H4 peptide (1 to 21) preincubated for 30 mins followed by H4 ligand addition and measured after 30 mins AlphaScreen assay

Cn1cc(-c2ccc3nc(-c4cnn(CC(C)(C)O)c4)nc(N4CCOC[C@@H]4c4ccc(F)cc4)c3c2)c2cc[nH]c2c1=O
Kd [1]: < 100 nM
IC50 [2]: < 100 nM

Cn1cc(-c2ccc3nc(-c4cnn(CC(C)(C)O)c4)nc(N4CCOC[C@@H]4c4ccccc4)c3c2)c2cc[nH]c2c1=O
Kd [1]: < 100 nM
IC50 [2]: < 100 nM

Cc1cc(-c2ccc3nc(-c4cnn(CC(C)(C)O)c4)nc(N4CCOC[C@@H]4C4CC4)c3c2)cn(C)c1=O
Kd [1]: < 100 nM
IC50 [2]: 100 nM

Cn1cc(-c2ccc3nc(-c4cnn(CC(C)(C)O)c4)nc(N4CCOC[C@@H]4C4CC4)c3c2)c2cc[nH]c2c1=O
Kd [1]: < 100 nM
IC50 [2]: < 100 nM

Cc1cc(-c2ccc3nc(-c4cnn(CC(C)(C)O)c4)nc(N4CCOC[C@@H]4c4ccccc4)c3c2)cn(C)c1=O
Kd [1]: < 100 nM
IC50 [2]: < 100 nM

Cc1cc(-c2ccc3nc(-c4cnn(CC(C)(C)O)c4)nc(N4CCOC[C@@H]4c4ccc(F)cc4)c3c2)cn(C)c1=O
Kd [1]: < 100 nM
IC50 [2]: < 100 nM
